# In patent publication US20240002416A1 (Rheinische-Friedrich-Wilhelms-Universität Bonn, priority 2020, published 2024):
# What was measured:
# [1] = molecular target: T1, human MRGPRX4-83L (Homo sapiens, UniProt Q96LA9); assay: β-arrestin assay (CHO β-arrestin ARMS1-ProLink 2 human MRGPRX4 83L); type: cell-based
# T1 construct: host or cells: CHO β-arrestin cells
# Summary of the method: (§1)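 Recombinant CHO cells served for arrestin recruitment, detected as complemented β-galactosidase activity. For intracellular calcium, 83L was tested in recombinant astrocytes and 83S in glioblastoma LN229 cells expressing it natively.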
# [2] = molecular target: T2, MRGPRX4-83S (Homo sapiens, UniProt Q96LA9, L83S); assay: Calcium assay (human glioblastoma LN229 cells expressing the MRGPRX4-83S); type: cell-based; design: LN229 glioblastoma cells natively expressing the MRGPRX4-83S; endogenous in cells; host or cells: LN229 human glioblastoma cells; settings: for Emax: LN-229
# Summary of the method: as §1
# [3] = molecular target: T2, MRGPRX4-83S; assay: β-arrestin assay (CHO β-arrestin human MRGPRX4-83S); type: cell-based; design: host or cells: CHO β-arrestin cells
# Summary of the method: as §1
# [4] = molecular target: T1, human MRGPRX4-83L; assay: Calcium assay (human MRGPRX4 83L), recombinant astrocytes; type: cell-based
# Summary of the method: as §1
# [5] = Table 1, β-arrestin recruitment, CHO cells, MRGPRX4-83L, means of 3-4 experiments, read-out: EC50 ± SEM
# [6] = Table 2, efficacy based on 30 μM H-1 (set as 100%), read-out: Emax
# [7] = Table 2, calcium mobilization, LN229 cells, MRGPRX4-83S, read-out: EC50 ± SEM
# [8] = Table 2, efficacy based on 100 nM B-16 (set as 100%), read-out: Emax
# [9] = Table 2, β-arrestin recruitment, CHO cells, MRGPRX4-83S, read-out: EC50 ± SEM
# [10] = Table 1, calcium mobilization, MRGPRX4-83L, read-out: EC50 ± SEM
# [11] = Table 1, efficacy based on maximal effect of 1 μM B-16 (set as 100%), read-out: Emax
# [12] = Table 4, efficacy based on maximal effect of 100 nM B-16 (set as 100%), read-out: Emax
# [13] = Table 4, β-arrestin recruitment, CHO cells, MRGPRX4-83L, read-out: EC50 ± SEM
# [14] = Table 3, efficacy based on 30 μM H-1 (set as 100%), read-out: Emax
# [15] = Table 3, calcium mobilization, LN229 cells, MRGPRX4-83S, read-out: EC50 ± SEM
# [16] = Table 3, efficacy based on 100 nM B-16 (set as 100%), read-out: Emax
# [17] = Table 3, β-arrestin recruitment, CHO cells, MRGPRX4-83S, read-out: EC50 ± SEM
# [18] = Table 4, calcium mobilization, MRGPRX4-83L, read-out: EC50 ± SEM
# [19] = Table 4, efficacy based on maximal effect of 1 μM B-16 (set as 100%), read-out: Emax
# [20] = Table 1, efficacy based on maximal effect of 100 nM B-16 (set as 100%), read-out: Emax
# T2 sequence (Q96LA9 whole entry L83S): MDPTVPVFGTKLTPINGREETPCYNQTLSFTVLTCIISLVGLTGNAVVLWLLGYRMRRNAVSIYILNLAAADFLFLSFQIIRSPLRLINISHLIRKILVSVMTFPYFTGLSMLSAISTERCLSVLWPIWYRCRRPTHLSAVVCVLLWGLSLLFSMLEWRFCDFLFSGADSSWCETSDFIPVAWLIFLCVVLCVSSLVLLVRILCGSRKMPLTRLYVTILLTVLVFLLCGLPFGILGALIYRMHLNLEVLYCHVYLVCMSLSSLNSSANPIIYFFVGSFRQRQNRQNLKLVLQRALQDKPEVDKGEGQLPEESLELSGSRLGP
# T1 sequence (Q96LA9 whole entry): as the sequence (Q96LA9 whole entry L83S) above, with S83L counted along it
compound,measurement,setting,value
"C#CCn1c(=O)c2c(nc(CCc3ccccc3Br)n2CCCl)n(CCCCP(=O)(O)O)c1=O [B-50, (4-(8-(2-Bromophenethyl)-7-(2-chloroethyl)-2,6-dioxo-1-(prop-2-yn-1-yl)-1,2,6,7-tetrahydro-3H-purin-3-yl)butyl)phosphonic acid]",EC50,[1],24.3 ± 3.2 nM
same,Emax,[1],91%
same,melting point,,197 to 199 °C
same,EC50,[2],0.095 ± 0.0427 nM
same,Emax,[2],111%
same,EC50,[3],0.301 ± 0.021 nM
same,Emax,[3],84%
same,EC50,[4],2.28 ± 0.75 nM
same,Emax,[4],118%
"CCn1c(=O)c2[nH]c(CCc3ccc(F)cc3)nc2n(CCCCP(=O)(O)O)c1=O [B-14, (4-(1-Ethyl-8-(4-fluorophenethyl)-2,6-dioxo-1,2,6,7-tetrahydro-3H-purin-3-yl)butyl)phosphonic acid]",value in brackets beside IC50 >10,"[1]; Table 1, bracketed value ± spread in IC50 column, not defined, inhibition of 2.6 μM B-16",3 ± 15
same,IC50,"[1]; Table 1, inhibition of the effect of 2.6 μM B-16",> 10000 nM
same,EC50,[1]; [5],> 10000 nM
same,melting point,,256 to 260 °C
same,Emax,[2]; [6],74%
same,EC50,[2]; [7],500 ± 113 nM
same,Emax,[3]; [8],81%
same,EC50,[3]; [9],735 ± 131 nM
same,EC50,[4]; [10],9450 ± 3230 nM
same,Emax,[4]; [11],99%
"C#CCn1c(=O)c2c(nc(CCc3ccccc3Br)n2CCN)n(CCCCP(=O)(O)O)c1=O [B-51, (4-(7-(2-Aminoethyl)-8-(2-bromophenethyl)-2,6-dioxo-1-(prop-2-yn-1-yl)-1,2,6,7-tetrahydro-3H-purin-3-yl)butyl)phosphonic acid]",Emax,[1]; [12],93%
same,EC50,[1]; [13],566 ± 106 nM
same,melting point,,159 to 161 °C
same,Emax,[2]; [14],107%
same,EC50,[2]; [15],1.48 ± 0.4 nM
same,Emax,[3]; [16],99%
same,EC50,[3]; [17],0.932 ± 0.177 nM
same,EC50,[4]; [18],79.8 ± 36.7 nM
same,Emax,[4]; [19],102%
"C#CCn1c(=O)c2[nH]c(CCc3cccc(Br)c3)nc2n(CCCCP(=O)(O)O)c1=O [B-4, (4-(8-(3-Bromophenethyl)-2,6-dioxo-1-(prop-2-yn-1-yl)-1,2,6,7-tetrahydro-3H-purin-3-yl)butyl)phosphonic acid]",Emax,[1]; [20],103%
same,EC50,[1]; [5],2140 ± 850 nM
same,melting point,,240 to 242 °C
same,Emax,[2]; [6],109%
same,EC50,[2]; [7],4.69 ± 1.58 nM
same,Emax,[3]; [8],110%
same,EC50,[3]; [9],3.24 ± 1.16 nM
same,EC50,[4]; [10],80.8 ± 16.8 nM
same,Emax,[4]; [11],100%
"C#CCn1c(=O)c2[nH]c(CCc3ccc(OC)cc3OC)nc2n(CCCCP(=O)(O)O)c1=O [B-10, (4-(8-(2,4-Dimethoxyphenethyl)-2,6-dioxo-1-(prop-2-yn-1-yl)-1,2,6,7-tetrahydro-3H-purin-3-yl)butyl)phosphonic acid]",Emax,[1]; [20],100%
same,EC50,[1]; [5],14500 ± 2400 nM
same,melting point,,255 to 257 °C
same,Emax,[2]; [6],82%
same,EC50,[2]; [7],30.6 ± 3.1 nM
same,Emax,[3]; [8],87%
same,EC50,[3]; [9],71.4 ± 19.3 nM
same,EC50,[4]; [10],425 ± 187 nM
same,Emax,[4]; [11],113%
"C#CCn1c(=O)c2[nH]c(CCc3ccccc3OC)nc2n(CCCCP(=O)(O)O)c1=O [B-7, (4-(8-(2-Methoxyphenethyl)-2,6-dioxo-1-(prop-2-yn-1-yl)-1,2,6,7-tetrahydro-3H-purin-3-yl)butyl)phosphonic acid]",Emax,[1]; [20],103%
same,EC50,[1]; [5],3120 ± 1200 nM
same,melting point,,169 to 172 °C
same,Emax,[2]; [6],132%
same,EC50,[2]; [7],10.3 ± 1.3 nM
same,Emax,[3]; [8],101%
same,EC50,[3]; [9],8.94 ± 1.38 nM
same,EC50,[4]; [10],397 ± 32 nM
same,Emax,[4]; [11],108%
"C#CCn1c(=O)c2c(nc(CCc3ccccc3F)n2C)n(CCCCP(=O)(O)O)c1=O [B-28, (4-(8-(2-Fluorophenethyl)-7-methyl-2,6-dioxo-1-(prop-2-yn-1-yl)-1,2,6,7-tetrahydro-3H-purin-3-yl)butyl)phosphonic acid]",Emax,[1]; [12],118%
same,EC50,[1]; [13],113 ± 39 nM
same,melting point,,217 to 219 °C
same,Emax,[2]; [14],92%
same,EC50,[2]; [15],0.284 ± 0.074 nM
same,Emax,[3]; [16],78%
same,EC50,[3]; [17],1.48 ± 0.18 nM
same,EC50,[4]; [18],39.7 ± 9.6 nM
same,Emax,[4]; [19],62%
"C#CCn1c(=O)c2c(nc(CCc3ccc(OC)cc3)n2CC2CCCC2)n(CCCCP(=O)(O)O)c1=O [B-41, (4-(7-(cyclopentylmethyl)-8-(4-methoxyphenethyl)-2,6-dioxo-1-(prop-2-yn-1-yl)-1,2,6,7-tetra-hydro-3H-purin-3-yl)butyl)phosphonic acid]",melting point,,111 to 113 °C
same,Emax,[2]; [14],57%
same,EC50,[2]; [15],51.4 ± 8.5 nM
same,Emax,[3]; [16],96%
same,EC50,[3]; [17],3.67 ± 1.21 nM
"C#CCn1c(=O)c2c(nc(CCc3ccccc3Br)n2CC2CCCCC2)n(CCCCP(=O)(O)O)c1=O [B-36, (4-(8-(2-Bromophenethyl)-7-(cyclohexylmethyl)-2,6-dioxo-1-(prop-2-yn-1-yl)-1,2,6,7-tetrahydro-3H-purin-3-yl)butyl)phosphonic acid]",Emax,[1]; [12],95%
same,EC50,[1]; [13],1250 ± 410 nM
same,melting point,,143 to 145 °C
same,Emax,[2]; [14],112%
same,EC50,[2]; [15],0.787 ± 0.164 nM
same,Emax,[3]; [16],84%
same,EC50,[3]; [17],4.28 ± 0.83 nM
same,EC50,[4]; [18],25.2 ± 3 nM
same,Emax,[4]; [19],109%
"C#CCn1c(=O)c2[nH]c(CCc3cccc(F)c3)nc2n(CCCCP(=O)(O)O)c1=O [B-3, (4-(8-(3-Fluorophenethyl)-2,6-dioxo-1-(prop-2-yn-1-yl)-1,2,6,7-tetrahydro-3H-purin-3-yl)butyl)phosphonic acid]",Emax,[1]; [20],89%
same,EC50,[1]; [5],7940 ± 1450 nM
same,melting point,,154 to 156 °C
same,Emax,[2]; [6],118%
same,EC50,[2]; [7],63.1 ± 18.6 nM
same,Emax,[3]; [8],93%
same,EC50,[3]; [9],33.9 ± 5.1 nM
same,EC50,[4]; [10],601 ± 103 nM
same,Emax,[4]; [11],110%
"C#CCn1c(=O)c2c(nc(CCc3ccccc3C)n2C(C)C)n(CCCCP(=O)(O)O)c1=O [B-48, (4-(7-Isopropyl-8-(2-methylphenethyl)-2,6-dioxo-1-(prop-2-yn-1-yl)-1,2,6,7-tetrahydro-3H-purin-3-yl)butyl)phosphonic acid]",melting point,,88 to 90 °C
same,Emax,[2]; [14],154%
same,EC50,[2]; [15],0.984 ± 0.054 nM
same,Emax,[3]; [16],102%
same,EC50,[3]; [17],0.0705 ± 0.0198 nM
"C#CCn1c(=O)c2c(nc(CCc3ccccc3Br)n2C(C)C)n(CCCCP(=O)(O)O)c1=O [B-46, (4-(8-(2-Bromophenethyl)-7-isopropyl-2,6-dioxo-1-(prop-2-yn-1-yl)-1,2,6,7-tetrahydro-3H-purin-3-yl)butyl)phosphonic acid]",Emax,[1]; [12],116%
same,EC50,[1]; [13],13.6 ± 6.1 nM
same,melting point,,109 to 111 °C
same,Emax,[2]; [14],109%
same,EC50,[2]; [15],0.79 ± 0.262 nM
same,Emax,[3]; [16],91%
same,EC50,[3]; [17],0.075 ± 0.0184 nM
same,EC50,[4]; [18],0.684 ± 0.073 nM
same,Emax,[4]; [19],108%
"C#CCn1c(=O)c2[nH]c(CCc3cccc(C(F)(F)F)c3)nc2n(CCCCP(=O)(O)O)c1=O [B-6, (4-(2,6-Dioxo-1-(prop-2-yn-1-yl)-8-(3-(trifluoromethyl)phenethyl)-1,2,6,7-tetrahydro-3H-purin-3-yl)butyl)phosphonic acid]",Emax,[1]; [20],114%
same,EC50,[1]; [5],11900 ± 1800 nM
same,melting point,,223 to 226 °C
same,Emax,[2]; [6],150%
same,EC50,[2]; [7],38.2 ± 10.9 nM
same,Emax,[3]; [8],100%
same,EC50,[3]; [9],20.5 ± 2.4 nM
same,EC50,[4]; [10],267 ± 66 nM
same,Emax,[4]; [11],99%
"C#CCn1c(=O)c2[nH]c(CCc3cccc(C)c3)nc2n(CCCCP(=O)(O)O)c1=O [B-5, (4-(8-(3-Methylphenethyl)-2,6-dioxo-1-(prop-2-yn-1-yl)-1,2,6,7-tetrahydro-3H-purin-3-yl)butyl)phosphonic acid]",Emax,[1]; [20],99%
same,EC50,[1]; [5],15200 ± 520 nM
same,melting point,,244 to 246 °C
same,Emax,[2]; [6],96%
same,EC50,[2]; [7],18.1 ± 1.5 nM
same,Emax,[3]; [8],103%
same,EC50,[3]; [9],34.3 ± 7.6 nM
same,EC50,[4]; [10],492 ± 38 nM
same,Emax,[4]; [11],91%
"C#CCn1c(=O)c2c(nc(CCc3ccc(C(C)C)cc3)n2CC2CCCC2)n(CCCCP(=O)(O)O)c1=O [B-43, (4-(7-(cyclopentylmethyl)-8-(4-isopropylphenethyl)-2,6-dioxo-1-(prop-2-yn-1-yl)-1,2,6,7-tetra-hydro-3H-purin-3-yl)butyl)phosphonic acid]",melting point,,125 to 127 °C
same,EC50,[2]; [15],> 10000 nM
same,Emax,[3]; [16],53%
same,EC50,[3]; [17],10.7 ± 7.1 nM
"C#CCn1c(=O)c2c(nc(CCc3ccc(C(F)(F)F)cc3)n2CC2CCCC2)n(CCCCP(=O)(O)O)c1=O [B-40, (4-(7-(cyclopentylmethyl)-2,6-dioxo-1-(prop-2-yn-1-yl)-8-(4-(trifluoromethyl)phenethyl)-1,2,6,7-tetrahydro-3H-purin-3-yl)butyl)phosphonic acid]",melting point,,101 to 102 °C
same,IC50,[2],13 ± 1.4 nM
same,Emax,[2]; [14],8%
same,EC50,[2]; [15],23.7 ± 0.7 nM
same,Emax,[3]; [16],77%
same,EC50,[3]; [17],18.3 ± 6.1 nM
